Target: CDK2/Cyclin E1 (Homo sapiens (Human), UniProt P24941)
Assay: CDK2/Cyclin E1 HTRF enzyme activity assay (Example A)
Assay type: biochemical
Details: 1 mM ATP
Procedure: Assays were conducted in white 384-well polystyrene plates in a final reaction volume of 8 μL. […] HTRF signals were read after 1 hour at room temperature on a PHERAstar FS plate reader (BMG Labtech). Data was analyzed with IDBS XLFit and GraphPad Prism 5.0 software using a three or four parameter dose response curve to determine IC50 for each compound.

Row | IC50 [nM] | Structure (SMILES)
1 | ≤ 50 | CC(C)(O)CCOc1ccc(-n2cnc(-c3nc(NC4CCN(S(C)(=O)=O)CC4)ncc3C(F)(F)F)c2)c(C(F)(F)F)n1 [Example 71, 2-Methyl-4-((5-(4-(2-((1-(methylsulfonyl)piperidin-4-yl)amino)-5-(trifluoromethyl)pyrimidin-4-yl)-1H-imidazol-1-yl)-6-(trifluoromethyl)pyridin-2-yl)oxy)butan-2-ol]
2 | ≤ 50 | C[C@]1(O)CCN(Cc2ccc(-n3cnc(-c4nc(N[C@@H]5CCN(S(C)(=O)=O)C[C@H]5F)ncc4C(F)(F)F)c3)c(Cl)c2)C1 [Example 410, (S)-1-(3-Chloro-4-(4-(2-(((3R,4R)-3-fluoro-1-(methylsulfonyl)piperidin-4-yl)amino)-5-(trifluoromethyl)pyrimidin-4-yl)-1H-imidazol-1-yl)benzyl)-3-methylpyrrolidin-3-ol]
3 | ≤ 50 | CC(O)c1ccc(-n2cnc(-c3nc(NC4CCN(S(C)(=O)=O)CC4)ncc3C(F)(F)F)c2)c(Cl)c1 (stereo not drawn) [Example 248, 1-(3-Chloro-4-(4-(2-((1-(methylsulfonyl)piperidin-4-yl)amino)-5-(trifluoromethyl)pyrimidin-4-yl)-1H-imidazol-1-yl)phenyl)ethan-1-ol]
4 | ≤ 50 | CS(=O)(=O)N1CCC(Nc2ncc(C(F)(F)F)c(-c3cn(-c4ccc(CCN5CCCC5)cc4C#N)cn3)n2)CC1 [Example 434, 2-(4-(2-((1-(Methylsulfonyl)piperidin-4-yl)amino)-5-(trifluoromethyl)pyrimidin-4-yl)-1H-imidazol-1-yl)-5-(2-(pyrrolidin-1-yl)ethyl)benzonitrile]
5 | ≤ 50 | CS(=O)(=O)N1CCC(Nc2ncc(C(F)(F)F)c(-c3cn(-c4c(F)cc(CNC5CC5)cc4F)cn3)n2)CC1 [Example 347, 4-(1-(4-((Cyclopropylamino)methyl)-2,6-difluorophenyl)-1H-imidazol-4-yl)-N-(1-(methylsulfonyl)piperidin-4-yl)-5-(trifluoromethyl)pyrimidin-2-amine]
6 | ≤ 50 | CN(C)C1CCN(c2ccc(-n3cnc(-c4nc(NC5CCN(S(C)(=O)=O)CC5)ncc4C(F)(F)F)c3)c(Cl)c2)CC1 [Example 145, 4-(1-(2-Chloro-4-(4-(dimethylamino)-piperidin-1-yl)-phenyl)-1H-imidazol-4-yl)-N-(1-(methylsulfonyl)-piperidin-4-yl)-5-(trifluoromethyl)-pyrimidin-2-amine]
7 | ≤ 50 | C[C@@H]1CN(S(C)(=O)=O)CC[C@@H]1Nc1ncc(C(F)(F)F)c(-c2cn(-c3ccc4nccnc4c3Br)cn2)n1 [Example 156, 4-(1-(5-Bromoquinoxalin-6-yl)-1H-imidazol-4-yl)-N-((3R,4S)-3-methyl-1-(methylsulfonyl)piperidin-4-yl)-5-(trifluoromethyl)pyrimidin-2-amine]
8 | ≤ 50 | CCNCc1ccc(-n2cnc(-c3nc(NC4CCN(S(C)(=O)=O)CC4)ncc3C(F)(F)F)c2)c(C(F)(F)F)c1 [Example 255, 4-(1-(4-((Ethylamino)methyl)-2-(trifluoromethyl)phenyl)-1H-imidazol-4-yl)-N-(1-(methylsulfonyl)piperidin-4-yl)-5-(trifluoromethyl)pyrimidin-2-amine]
9 | ≤ 50 | CC(C)(O)Cn1cnc(-c2nc(NC3CCN(S(C)(=O)=O)CC3)ncc2C#N)c1 [Example 27, 4-(1-(2-Hydroxy-2-methylpropyl)-1H-imidazol-4-yl)-2-((1-(methylsulfonyl)piperidin-4-yl)amino)pyrimidine-5-carbonitrile]
10 | ≤ 50 | CC1(F)CN(Cc2ccc(-n3cnc(-c4nc(NC5CCN(S(C)(=O)=O)CC5)ncc4C(F)(F)F)c3)c(Cl)c2)C1 [Example 196, 4-(1-(2-Chloro-4-((3-fluoro-3-methyl-azetidin-1-yl)methyl)-phenyl)-1H-imidazol-4-yl)-N-(1-(methyl-sulfonyl)piperidin-4-yl)-5-(trifluoromethyl)-pyrimidin-2-amine]
11 | ≤ 50 | Cc1cc(CNCC(F)F)ccc1-n1cnc(-c2nc(NC3CCN(S(C)(=O)=O)CC3)ncc2C(F)(F)F)c1 [Example 450, 4-(1-(4-(((2,2-Difluoroethyl)amino)methyl)-2-methylphenyl)-1H-imidazol-4-yl)-N-(1-(methylsulfonyl)piperidin-4-yl)-5-(trifluoromethyl)pyrimidin-2-amine]
12 | ≤ 50 | CN1CC(c2ccc(-n3cnc(-c4nc(NC5CCN(S(C)(=O)=O)CC5)ncc4C(F)(F)F)c3)c(C#N)c2)C1 [Example 428, 5-(1-Methylazetidin-3-yl)-2-(4-(2-((1-(methylsulfonyl)piperidin-4-yl)amino)-5-(trifluoromethyl)pyrimidin-4-yl)-1H-imidazol-1-yl)benzonitrile]
13 | ≤ 50 | Cn1cnc(S(=O)(=O)N2CCC(Nc3ncc(C(F)(F)F)c(-c4cn(-c5c(Cl)cccc5C#N)cn4)n3)CC2)c1 [Example 5, 3-Chloro-2-(4-(2-((1-((1-methyl-1H-imidazol-4-yl)sulfonyl)piperidin-4-yl)amino)-5-(trifluoromethyl)pyrimidin-4-yl)-1H-imidazol-1-yl)benzonitrile]
14 | ≤ 50 | CNC(=O)c1ccc(-n2cnc(-c3nc(NC4CCN(S(C)(=O)=O)CC4)ncc3C(F)(F)F)c2)c(Cl)c1Cl [Example 137, 2,3-Dichloro-N-methyl-4-(4-(2-((1-(methylsulfonyl)piperidin-4-yl)amino)-5-(trifluoromethyl)pyrimidin-4-yl)-1H-imidazol-1-yl)benzamide]
15 | ≤ 50 | CN1CC(c2ccc(-n3cnc(-c4nc(NC5CCN(S(C)(=O)=O)CC5)ncc4C(F)(F)F)c3)c(Cl)c2)C1 [Example 440, 4-(1-(2-Chloro-4-(1-methylazetidin-3-yl)phenyl)-1H-imidazol-4-yl)-N-(1-(methylsulfonyl)piperidin-4-yl)-5-(trifluoromethyl)pyrimidin-2-amine]
16 | ≤ 50 | CS(=O)(=O)N1CCC(Nc2ncc(C(F)(F)F)c(-c3cn(-c4ccc(Cn5cnnc5)cc4Cl)cn3)n2)CC1 [Example 239, 4-(1-(4-((4H-1,2,4-Triazol-4-yl)methyl)-2-chlorophenyl)-1H-imidazol-4-yl)-N-(1-(methylsulfonyl)piperidin-4-yl)-5-(trifluoromethyl)pyrimidin-2-amine]
17 | ≤ 50 | CS(=O)(=O)N1CCC(Nc2ncc(C(F)(F)F)c(-c3cn(-c4ccc(N5CC[C@@H](O)C5)cc4Cl)cn3)n2)CC1 [Example 138, (R)-1-(3-Chloro-4-(4-(2-((1-(methylsulfonyl)piperidin-4-yl)amino)-5-(trifluoromethyl)pyrimidin-4-yl)-1H-imidazol-1-yl)phenyl)pyrrolidin-3-ol]
18 | ≤ 50 | Cc1nc(-c2nc(NC3CCN(S(C)(=O)=O)CC3)ncc2C(F)(F)F)cn1-c1ccc(C#N)cc1F [Example 303, 3-Fluoro-4-(2-methyl-4-(2-((1-(methylsulfonyl)piperidin-4-yl)amino)-5-(trifluoromethyl)pyrimidin-4-yl)-1H-imidazol-1-yl)benzonitrile]
19 | ≤ 50 | CS(=O)(=O)N1CCC(Nc2ncc(C(F)(F)F)c(-c3cn(-c4ccc(CN5CC6CCC5CC6)cc4Cl)cn3)n2)CC1 [Example 179, 4-(1-(4-((2-Azabicyclo[2.2.2]octan-2-yl)methyl)-2-chlorophenyl)-1H-imidazol-4-yl)-N-(1-(methylsulfonyl)piperidin-4-yl)-5-(trifluoromethyl)pyrimidin-2-amine]
20 | ≤ 50 | CN1CCC(c2ccc(-n3cnc(-c4nc(NC5CCN(S(C)(=O)=O)CC5)ncc4C(F)(F)F)c3)c(Cl)c2)CC1 [Example 439, 4-(1-(2-Chloro-4-(1-methylpiperidin-4-yl)phenyl)-1H-imidazol-4-yl)-N-(1-(methylsulfonyl)piperidin-4-yl)-5-(trifluoromethyl)pyrimidin-2-amine]
21 | ≤ 50 | CCN(C)Cc1ccc(-n2cnc(-c3nc(NC4CCN(S(C)(=O)=O)CC4)ncc3C(F)(F)F)c2)c(Cl)c1 [Example 192]
22 | ≤ 50 | CS(=O)(=O)N1CCC(Nc2ncc(C(F)(F)F)c(-c3cn(-c4ccnc(N5CCOCC5)c4C#N)cn3)n2)CC1 [Example 317, 4-(4-(2-((1-(Methylsulfonyl)piperidin-4-yl)amino)-5-(trifluoromethyl)pyrimidin-4-yl)-1H-imidazol-1-yl)-2-morpholinonicotinonitrile]
23 | ≤ 50 | CS(=O)(=O)N1CCC(Nc2ncc(C(F)(F)F)c(-c3cn(-c4ccc(C#N)cc4C#N)cn3)n2)CC1 [Example 59, 4-(4-(2-((1-(Methylsulfonyl)piperidin-4-yl)amino)-5-(trifluoromethyl)pyrimidin-4-yl)-1H-imidazol-1-yl)isophthalonitrile]
24 | ≤ 50 | Cc1c(-n2cnc(-c3nc(N[C@H]4CCN(S(C)(=O)=O)C[C@H]4F)ncc3C(F)(F)F)c2)ccnc1C#N [Example 302, 4-(4-(2-(((3R,4S)-3-Fluoro-1-(methylsulfonyl)piperidin-4-yl)amino)-5-(trifluoromethyl)pyrimidin-4-yl)-1H-imidazol-1-yl)-3-methylpicolinonitrile]
25 | ≤ 50 | Cc1nc(-c2nc(N[C@H]3CCN(S(C)(=O)=O)C[C@H]3F)ncc2C(F)(F)F)cn1-c1ccc(CN2CCN(C)CC2)cc1F [Example 387, N-((3R,4S)-3-Fluoro-1-(methylsulfonyl)piperidin-4-yl)-4-(1-(2-fluoro-4-((4-methylpiperazin-1-yl)methyl)phenyl)-2-methyl-1H-imidazol-4-yl)-5-(trifluoromethyl)pyrimidin-2-amine]
26 | ≤ 50 | CCNCc1ccc(-n2cc(-c3nc(N[C@H]4CCN(S(C)(=O)=O)C[C@H]4F)ncc3C(F)(F)F)nc2C)c(F)c1 [Example 389, 4-(1-(4-((Ethylamino)methyl)-2-fluorophenyl)-2-methyl-1H-imidazol-4-yl)-N-((3R,4S)-3-fluoro-1-(methylsulfonyl)piperidin-4-yl)-5-(trifluoromethyl)pyrimidin-2-amine]
27 | ≤ 50 | COc1nccc(-n2cnc(-c3nc(NC4CCN(S(C)(=O)=O)CC4)ncc3C(F)(F)F)c2)c1C#N [Example 291, 2-Methoxy-4-(4-(2-((1-(methylsulfonyl)piperidin-4-yl)amino)-5-(trifluoromethyl)pyrimidin-4-yl)-1H-imidazol-1-yl)nicotinonitrile]
